Experimental data: BindingDB's records for doi:10.7270/Q2C53J9J (University of Pittsburgh, 2010)

Each molecule was assayed against T1, Glucose-6-phosphate 1-dehydrogenase (Leuconostoc mesenteroides, UniProt P11411) (assay: Leuconostoc G6PDH inhibition potency, SAR follow-up, counter-screen for TbHK1 inhibitor project, biochemical, analogue series, IC50 (AID 2579)).
T1 sequence (P11411 whole entry): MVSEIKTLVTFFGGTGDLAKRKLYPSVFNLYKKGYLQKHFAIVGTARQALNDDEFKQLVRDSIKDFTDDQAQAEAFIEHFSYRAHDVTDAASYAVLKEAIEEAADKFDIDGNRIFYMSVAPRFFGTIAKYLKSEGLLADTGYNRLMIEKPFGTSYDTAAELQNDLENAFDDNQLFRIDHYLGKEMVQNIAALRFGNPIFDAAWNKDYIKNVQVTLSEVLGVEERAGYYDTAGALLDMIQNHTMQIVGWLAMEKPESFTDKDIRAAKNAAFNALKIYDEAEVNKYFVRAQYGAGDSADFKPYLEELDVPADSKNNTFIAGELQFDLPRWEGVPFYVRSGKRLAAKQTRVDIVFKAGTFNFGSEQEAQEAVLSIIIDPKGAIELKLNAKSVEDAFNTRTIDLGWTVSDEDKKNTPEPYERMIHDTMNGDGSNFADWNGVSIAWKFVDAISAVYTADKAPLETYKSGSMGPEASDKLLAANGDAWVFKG

| Compound | IC50 [µM] |
| --- | --- |
| O=C(Cn1sc2ccccc2c1=O)Nc1cccc(F)c1 [N-(3-fluorophenyl)-2-(3-oxo-1,2-benzothiazol-2-yl)acetamide] | > 25 |
| COc1ccc(C(=O)NC(C(=O)O)c2ccccc2)cc1 (centres undefined) [2-[(4-methoxyphenyl)carbonylamino]-2-phenyl-ethanoic acid] | > 25 |
| COc1ccccc1NC(=O)Cn1sc2ccccc2c1=O [N-(2-methoxyphenyl)-2-(3-oxidanylidene-1,2-benzothiazol-2-yl)ethanamide] | > 25 |
| COc1ccc(NC(=O)c2ccc(Cl)cc2C(=O)O)cc1 [KUC105925N] | > 25 |
| COc1ccc(C(=O)NC(CC(=O)O)c2cccc(Cl)c2)cc1 (centres undefined) [3-(3-chlorophenyl)-3-[(4-methoxybenzoyl)amino]propanoic acid] | > 25 |
| OB1OCc2cc(C(F)(F)F)ccc21 [KSC-6-287] | > 25 |
| COc1ccc(C(=O)Nc2cc(Br)ccc2C(=O)O)cc1 [4-bromo-2-[[(4-methoxyphenyl)-oxomethyl]amino]benzoic acid] | > 25 |
| O=c1c2cc(Br)ccc2[s+]([O-])n1-c1ccccc1 (centres undefined) | > 25 |
| O=c1c2cc([N+](=O)[O-])ccc2sn1-c1ccccc1 [KUC103868N] | > 25 |
| O=C(Nc1cc(Cl)ccc1C(=O)O)c1ccc(-c2cccs2)cc1 [KUC106464N] | > 25 |
| COc1ccc(C(=O)Nc2cc(Cl)ccc2-c2nnn[nH]2)cc1 [KUC105991N] | > 25 |
| COc1cccc(C(=O)Nc2cc(Cl)ccc2C(=O)O)c1 | > 25 |
| O=C(Cn1sc2ccccc2c1=O)Nc1ccccc1C(F)(F)F [KUC105610N] | > 25 |
| O=c1c2ccccc2sn1-c1ccccc1 [2-phenyl-1,2-benzothiazol-3-one] | > 25 |
| O=C(Cn1sc2ccccc2c1=O)Nc1ccccc1I [N-(2-iodanylphenyl)-2-(3-oxidanylidene-1,2-benzothiazol-2-yl)ethanamide] | > 25 |
| COc1ccc2sn(-c3ccccc3)c(=O)c2c1 [KSC-09-048] | > 25 |
| CC(C(=O)Nc1ccccc1)n1sc2ccccc2c1=O (centres undefined) [2-(3-keto-1,2-benzothiazol-2-yl)-N-phenyl-propionamide (9)] | > 25 |
| CN(C)c1ccc(C(=O)Nc2cc(Cl)ccc2C(=O)O)cc1 [KUC105997N] | > 25 |
| CC(=O)Nc1ccc2sn(-c3ccccc3)c(=O)c2c1 [KSC-6-110] | > 25 |
| O=C(Cn1sc2ccccc2c1=O)Nc1cccc(I)c1 [KUC104222N] | > 25 |
| O=c1c2cc(Br)ccc2sn1-c1ccccc1 [KSC-6-175] | > 25 |
| COc1ccc(C(=O)Nc2ccccc2C(=O)O)cc1 [KUC106458N] | > 25 |
| CN(Cc1ccccc1)C(=O)Cn1sc2ccccc2c1=O [N-benzyl-N-methyl-2-(3-oxo-1,2-benzothiazol-2-yl)acetamide] | > 25 |
| O=C(Nc1cc(Cl)ccc1C(=O)O)c1ccsc1 [KUC105926N] | > 25 |
| O=C(Nc1ccccc1)c1cc(F)ccc1S | > 25 |

| Compound | IC50 [µM] |
| --- | --- |
| COc1ccccc1-n1sc2ccccc2c1=O [KUC103854N] | > 25 |
| COc1ccc(C(=O)Nc2cc(C(F)(F)F)ccc2C(=O)O)cc1 [2-[(4-methoxybenzoyl)amino]-4-(trifluoromethyl)benzoic acid] | > 25 |
| O=C(Cn1sc2ccccc2c1=O)Nc1cccc(C(F)(F)F)c1 [KUC104221N] | > 25 |
| CC(C)c1cccc(C(=O)Nc2cc(Cl)ccc2C(=O)O)c1 [KUC106459N] | > 25 |
| O=C(Cn1sc2ccccc2c1=O)N1CCOCC1 [KUC105406N] | > 25 |
| COc1ccc(C(=O)Nc2cccc(Cl)c2)cc1 | > 25 |
| O=C(Cn1sc2ccccc2c1=O)Nc1ccccc1 [KUC104122N] | > 25 |
| O=C(Cn1sc2ccccc2c1=O)Nc1ccc(C(F)(F)F)cc1 [KUC105341N] | > 25 |
| N#Cc1ccc(NC(=O)Cn2sc3ccccc3c2=O)cc1 [KUC104552N] | > 25 |
| Cn1c2ccccc2c(=O)n1-c1ccccc1 [1-methyl-2-phenyl-3-indazolone] | > 25 |
| COc1ccc(-c2cc3ccccc3[nH]2)cc1 [KUC105790N] | > 25 |
| O=c1c2c(Br)cccc2sn1-c1ccccc1 [4-bromanyl-2-phenyl-1,2-benzothiazol-3-one] | > 25 |
| CN(C)S(=O)(=O)c1cccc(-n2sc3ccccc3c2=O)c1 [3-(3-keto-1,2-benzothiazol-2-yl)-N,N-dimethyl-benzenesulfonamide] | > 25 |
| CN(C)c1ccc(NC(=O)Cn2sc3ccccc3c2=O)cc1 [KSC-09-127C] | > 25 |
| O=c1c2cc(F)c(F)cc2sn1-c1ccccc1 [KUC104549N] | > 25 |
| COc1ccc(C(=O)NC(CC(=O)O)c2ccccc2)cc1 (centres undefined) [sodium;3-[(4-methoxybenzoyl)amino]-3-phenylpropanoate] | > 25 |
| O=C(Cn1sc2ccccc2c1=O)Nc1cccc(Br)c1 [N-(3-bromophenyl)-2-(3-oxo-1,2-benzothiazol-2-yl)acetamide] | > 25 |
| O=c1c2ccc(Br)cc2sn1-c1ccccc1 | > 25 |
| COc1ccc(C(=O)Nc2ccc(Cl)cc2C(=O)O)cc1 [KUC105713N] | > 25 |
| Cc1ccc(C(=O)Nc2cc(Cl)ccc2C(=O)O)c(C)c1 [4-chloro-2-[[(2,4-dimethylphenyl)-oxomethyl]amino]benzoic acid] | > 25 |
| COC(=O)c1ccc(Cl)cc1NC(=O)c1ccc(OC)cc1 [KUC105792N] | > 25 |
| CC(C)Cc1ccc(C(=O)Nc2cc(Cl)ccc2C(=O)O)cc1 [4-chloranyl-2-[[4-(2-methylpropyl)phenyl]carbonylamino]benzoic acid] | > 25 |
| O=c1c(Br)csn1-c1ccc(Br)cc1 [4-bromo-2-(4-bromophenyl)-3-isothiazolone] | > 25 |
| O=C(Nc1cc(Cl)ccc1C(=O)O)c1cocn1 [KUC105934N] | > 25 |
| Cc1ccc(C(=O)Nc2cc(Cl)ccc2C(=O)O)cc1 [4-chloro-2-[(4-methylbenzoyl)amino]benzoic acid] | > 25 |

| Compound | IC50 [µM] |
| --- | --- |
| Cc1ccc(-n2sc3cc(F)ccc3c2=O)c(C)c1 [2-(2,4-dimethylphenyl)-6-fluoranyl-1,2-benzothiazol-3-one] | > 25 |
| COc1ccc(C(=O)Nc2cc(Cl)ccc2[N+](=O)[O-])cc1 [KSC-6-266] | > 25 |
| O=C1c2cccc(Br)c2SCN1c1ccccc1 [8-bromanyl-3-phenyl-2H-1,3-benzothiazin-4-one] | > 25 |
| O=c1c2cc(C(F)(F)F)ccc2sn1-c1ccccc1 [KSC-09-037] | > 25 |
| COc1ccc(-n2sc3ccccc3c2=O)cc1 [KSC-6-098] | > 25 |
| COc1ccc(NC(=O)Cn2sc3ccccc3c2=O)cc1 [KSC-4-269] | > 25 |
| O=C1CCN(C(=O)Nc2cc(Cl)ccc2C(=O)O)CC1 [4-chloro-2-[[oxo-(4-oxo-1-piperidinyl)methyl]amino]benzoic acid] | > 25 |
| O=C(Cn1sc2ccccc2c1=O)Nc1ccccc1F [KSC-09-149A] | > 25 |
| O=C(Nc1ccccc1)n1sc2ccccc2c1=O [KUC105339N] | > 25 |
| Cc1ccccc1-n1sc2cc(F)ccc2c1=O [6-fluoranyl-2-(2-methylphenyl)-1,2-benzothiazol-3-one] | > 25 |
| COc1ccc(NC(=O)c2ccccc2SCc2ccccc2)cc1 [KUC103881N] | > 25 |
| COc1ccc(C(=O)Nc2cc(OC)ccc2C(=O)O)cc1 [KUC105624N] | > 25 |
| Cc1ccc(-n2sc3ccccc3c2=O)cc1 [2-(4-methylphenyl)-1,2-benzisothiazol-3(2H)-one] | > 25 |
| Cn1sc(=O)c2ccccc21 [KUC103851N] | > 25 |
| O=C(Nc1cc(Cl)ccc1C(=O)O)c1ccc(-c2ccccc2)cc1 [4-chloranyl-2-[(4-phenylphenyl)carbonylamino]benzoic acid] | > 25 |
| O=C(Nc1cc(Cl)ccc1C(=O)O)c1ccc(Cl)cc1 [4-chloranyl-2-[(4-chlorophenyl)carbonylamino]benzoic acid] | > 25 |
| COc1ccc(NC(=O)Nc2ccccc2C(=O)O)cc1 [KUC105625N] | > 25 |
| O=c1ccsn1-c1ccccc1 [2-Phenyl-isothiazol-3-one] | > 25 |
| O=c1c2ccccc2sn1-c1ccccc1F | > 25 |
| COc1ccc(C(=O)O)c(NC(=O)c2ccc(Cl)cc2)c1 | > 25 |
| COc1ccc(Nc2cc(Cl)ccc2C(=O)O)cc1 [4-chloro-2-(4-methoxyanilino)benzoic acid] | > 25 |
| O=c1c2cc(F)ccc2sn1-c1ccccc1 [5-fluoranyl-2-phenyl-1,2-benzothiazol-3-one] | > 25 |
| CCCCCCCC(=O)Nc1cc(Cl)ccc1C(=O)O [KUC106002N] | > 25 |
| O=c1cc(-c2ccccc2)sn1-c1ccccc1 | > 25 |
